target: arachidonate 5-lipoxygenase (Cavia porcellus); assay: Inhibitory activity against 5-lipoxygenase

Row | Structure (SMILES) | IC50
1 | CCCCC/C=C\C/C=C\C/C=C\C=C\C(CO)CCCC(=O)O (stereo not drawn) [5-Hydroxymethyl-icosa-6,8,11,14-tetraenoic acid] | 100 µM
2 | CCCCC/C=C\C\C=C/C=C/C=C/C1CC1CCCC(=O)O (stereo not drawn) [4-(2-Tetradeca-1,3,5,8-tetraenyl-cyclopropyl)-butyric acid] | 3 µM
3 | CCCCC/C=C\C/C=C\C/C=C\C=C\[C@@H](O)CCCC(=O)O [(5S,6E,8Z,11Z,14Z)-5-hydroxyicosa-6,8,11,14-tetraenoic acid] | 2 µM
4 | CCCCCCCCCCCCCCC1CC1CCCC(=O)O (stereo not drawn) [4-(2-Tetradecyl-cyclopropyl)-butyric acid] | 100 µM
5 | CCCCC/C=C\C/C=C\CC=CC=CC(=O)CCCC(=O)OC [5-Oxo-icosa-6,8,11,14-tetraenoic acid methyl ester] | 20 µM
6 | CCCCC/C=C\C\C=C/C=C/C=C/[C@@H]1O[C@H]1CCCC(=O)O [4-{(2S,3S)-3-[(1E,3E,5Z,8Z)-tetradeca-1,3,5,8-tetraen-1-yl]oxiran-2-yl}butanoic acid] | 2 µM
7 | CCCCC/C=C\C\C=C/C=C/C=C/C1CC1CCCCC(=O)O (stereo not drawn) [5-(2-Tetradeca-1,3,5,8-tetraenyl-cyclopropyl)-pentanoic acid] | 20 µM
8 | CCCCC/C=C\C\C=C/C=C/C=C/C1SC1CCCC(=O)OC (stereo not drawn) [4-(3-Tetradeca-1,3,5,8-tetraenyl-thiiranyl)-butyric acid methyl ester] | 65 µM

Source: BindingDB's records for doi:10.1021/jm00355a015 (1983)
